According to patent US7943586B2, “Antineoplastic agents targeted via glut transporters” (The Trustees of the University of Pennsylvania, priority 2003, dated 2011):

Assays:
[1] = system: 9L glioma cells; experiment: Confocal microscopy of uptake and localization in 9L glioma cells, with or without D-glucose; type: cell-based, rat; conditions: for uptake / localization in 9L glioma cells / effect of D-glucose on uptake / localization in 9L glioma cells: 50 μM, 30 min, 37° C.; for effect of D-glucose on uptake / localization in 9L glioma cells: 50 mM D-glucose; for subcellular localization in 9L glioma cells: 100 μM Pyro-2DG with 10 μg/ml Rhodamine-123, 15 min post-incubation
Protocol: Confocal Microscopic Studies: 9L glioma cells were grown for 5 days in 4-well Lab-Tek chamber slides (Naperville, Ill.). Before the cell experiments, the culture medium was replaced by preincubation medium (medium with 1% (w/v) BSA instead of FBS). The cells were washed three times with preincubation medium (for 15, 15, and 30 min), and cultured in this medium for a further 20 hours. Experiments were started, after two quick washes with preincubation medium, by the addition of preincubation medium containing the indicated amounts of Pyro-2DG and/or D-Glucose. After 30 minutes incubation at 37° C., the cells were washed five times with ice-cold PBS containing 0.8% BSA, two times with PBS alone, and fixed for 20 minutes with 2% formaldehyde in PBS at room temperature. Then the chamber slides were mounted and sealed for confocal microscopic analysis.
9L glioma cells, obtained from Department of Radiation Oncology at University of Pennsylvania, were cultured in Modified Eagle's Medium (NEM) supplemented with 15% newborn calf serum (NCS), 100 U/ml penicillin-streptomycin. Murine melanoma B16 cells, obtained from Dr. Theo van Berkel's laboratory at the University of Leiden, Netherlands, were cultured in Dulbeco's modified Eagle's medium (DMM) supplemented with 10% fetal bovine serum (FBS) and 100 U/n-d penicillin-streptomycin Cells were grown at 37° C. in an atmosphere of 5% CO2 in a humidified incubator. Cells were grown for 5 days in 4-well Lab-Tek chamber slides (Naperville, Ill.) before the experiment. Indicated amounts of NIRF-2DGs with or without D-Glucose and Rbodarninc-123 were incubated with 9L glioma cells/B16 melanoma cells at 37° C. for 30 min after 3 washes with Dulbecco's Phosphate Buffered Saline (D-PBS). After incubation, the cells were washed five times with ice-cold PBS and Fixed for 20 minutes with 2% formaldehyde in PBS at room temperature. Then the chamber slides were mounted and sealed for confocal niicroscopic analysis. Confocal aticroscopic images were obtained with TCS SPII laser scanning confocal microscope (LSCM) (Heidelber, Germany).

[2] = system: AR42J tumors (pancreatic acinar carcinoma); experiment: In vivo NIR phased array optical imaging of submerged AR42J tumors in nu/nu mice; set-up: species or system mouse; conditions: 3.5 hours after tail vein injection of 200 μL, tumor 1.5 cm deep
Description: In vivo NIR optical imaging system: To image and localize subsurface fluorochrome labeled tumors, an NLR imaging system utilizing diffusion photons (Patterson, M. S.; Chance, B.; Wilson, B. C., Time resolved reflectance and transmittance for the non-invasive measurement of tissue optical properties. Applied Optics 1989, 28, 2331-2336.
Fishkin, J. B.; Gratton, E., Propagation of photon-density waves in strongly scattering media containing an absorbing seni-infinite plane bounded by a straight edge. Journal of the Optical Society of America A 1993, 10, 127-140.) has been developed. The in vivo fluorescence optical imaging system consists of a pair of laser diodes operating at 780 nm. […]
Intes, X.; Chen, Y.; Li, X. D.; Chance, B., Detection limit enhancement of fluorescent heterogeneities in turbid media by dual-interfering excitation. […] A 3-mm-in-diameter fiber bundle collects the fluorescence signal from the fluorophore taken by in the tumor. […] The fluorescence signal is then detected by the photomultiplier tube (PMT) and demodulated by the 50 MD receiver to obtain the amplitude and phase information. […] (Chen, Y.; Zheng, G.; Zhang, Z. H.; Blessington, D.; Zhang, M.; Li, H.; Iiu, Q.; Zhou, L.; Intes, X.; Achilefu, S.; Chance, B., Metabolism-enhanced tumor localization by fluorescence imaging: in vivo animal studies. Optics Letters 2003, 28, (21), 2070-2072). […]

[3] = Biodistribution in organs of a normal Fisher 344 rat by Cryo-imager; type: in vivo; conditions: 1 hour after intravenous administration, preliminary
Protocol: FIG. 9. Pyro-2DG uptake in different organs of a Fisher 344 rat after 1 h tail vein infusion of 2 ml of 2.5 mg/kg Pyro-2DG. Liver (top left), kidney (bottom left), spleen (bottom middle) and brain (bottom right). Images of the frozen liver and of the control liver (no Pyro-2DG), respectively, appear in the top middle and right hand panels.
In order to determine the biodistribution of the Pyro-2DG, a normal Fisher 344 rat was sacrificed and different organs were scanned for Pyro-2DG fluorescence with Cryo-imager 1 hour after Pyro-2DG was intravenously administered.

[4] = Water solubility / miscibility of Pyro-2DG; type: physicochemical
[5] = system: 9L glioma; type: in vivo, rat
Protocol: Animals: Rat 9L glioma was implanted on the flanks of male Fisher 344 rats (150 -200 g) via subcutaneous injection of 0.1 mL, ˜10^6 9L glioma cells. Within ten days, tumors grew to the desired size of 1 cm in diameter.
After not feeding animals for 24 hours, the rats were anaesthetized via intraperitoneal injection of Ketamine (75 mg/kg) and Xylazine (10 mg/kg). Pyro-2DG (2 mL, concentration: 0.25 mg/mL) was injected via tail vein infusion over a period of 1 hour (dose: 2.5 mg/kg). Thirty minutes later, the rats were anesthetized again and subjected to PDT.
PDT Protocol: A “point treatment” protocol was designed for evaluating PDT response of Pyro-2DG. PDT was carried out using a KTP YAG pumped dye module (Laserscope, San Jose, Calif.) tuned to produce 670 nm light. Light delivery was through a 1 mm fiber to create a treatment spot of 0.96 mm in diameter when the fiber was held closely adjacent to the tumor. The light field was fixed in position at the center of the tumor by mounting the fiber in the center of a circular plate which was glued to the anesthetized animal. The light was delivered at a fluence rate of 75 mW/cm^2 to a total dose of 175 J/cm^2. Laser power output was measured with a power meter (Coherent, Auburn, Calif.).
Fluorescence Imaging of Tumors (Quistorff, B., Haselgrove, J. C., and Chance, B. (1985) High spatial resolution readout of 3-D metabolic organ structure: an automated, low-temperature redox ratio-scanning instrument. Anal. Biochem. 148, 389-400; Gu, Y. Q., Qian, Z. Y., Chen, J. X., Blessington, D., Ramanujam, N., and Chance, B. (2002) High-resolution three-dimensional scanning optical image system for intrinsic and extrinsic contrast agents in tissue. Rev. Sci. Instruments 73, 172-178; Ramanujam, N., Richards-Kortum, R., Thomsen, S., Mahadevan-Jansen, A., Follen M., and Chance B. (2001) Low temperature fluorescence imaging of freeze-trapped human cervical tissues. Opt. Express 8, 335-343): Immediately after PDT, animals were immersed in pre-cooled isopentane (−150° C.) and transferred to liquid nitrogen (−196° C.) 5 minutes later. Tumors were then surgically excised, embedded in a mixture of ethanol-glycerol-water (freeze point: −30° C.), and mounted at low temperature for 3D surface fluorometric scanning. […] The fluorescence signal was automatically digitized and recorded on a PC. The redox ratio of FP/(FP+PN) was calculated with MATLAB.
A “point treatment” protocol for evaluating PDT response of Pyro-2DG was designed. […] Based on the absorption and emission maxima of Pyro-2DG (λex=665 nm; λem=720 nm), the 9L tumor was treated with 670 nm laser light, and a 700 nm long pass filter was incorporated into the 3D fluorescence scanner for collecting the Pyro-2DG fluorescence at 720 nm. […]

[6] = after PDT, 670 nm, 75 mW/cm^2, 175 J/cm^2

Which results are given for pyropheophorbide a [reference compound]?
uptake / localization in 9L glioma cells [1]: concentration dependent; effect of D-glucose on uptake / localization in 9L glioma cells [1]: not inhibited by D-glucose

For “2-deoxyglucose conjugate of Bacteriopurpurin-18-N-3′-(isothiocyanate)-propylimide [BChlPP-2DG]”, which “enhancement of the tumor region” value [2] is on record?
The value was “enhanced”.

For “Rhodamine 123 [Rhodamine-123, reference compound]”, which “subcellular localization in 9L glioma cells” value [1] is on record?
Its value is “localize in mitochondria”.

Which results are given for “Pyropheophorbide-2-deoxyglucosamide [Pyro-2DG]”?
uptake / localization in 9L glioma cells [1]: localizes within 9L glioma cells; effect of D-glucose on uptake / localization in 9L glioma cells [1]: competitively inhibited by D-glucose; subcellular localization in 9L glioma cells [1]: localize in mitochondria; accumulation in liver [3]: accumulated predominantly in liver; accumulation in spleen and kidney [3]: lesser accumulation in spleen and kidney; crossing of the blood-brain barrier [3]: does not cross the blood-brain barrier; miscibility with water ([4]; formulation with detergent (1% Tween 80)): completely miscible with water; water solubility ([4]; without detergent): only partially water-soluble; NADH fluorescence of irradiated spot [5, 6]: significant decrease; PP fluorescence of irradiated spot [5, 6]: marked increase; redox ratio of the tumor FP/(FP+PN) ([5]; after PDT, irradiated region): dramatic increase; effect on mitochondrial activities (redox state) of the tumor ([5]; rat, in vivo): no effect on the mitochondrial activities of the tumor

Which “enhancement of the tumor region” value [2] does the source give for CC1(C)C(/C=C/C=C/C=C/C=C2\N(CCCCS(=O)(=O)O)c3ccc4ccccc4c3C2(C)C)=[N+](CCCCS(=O)(=O)[O-])c2ccc3ccccc3c21 [ICG, Indocyanine Green, reference compound] here?
The value was “no significant enhancement”.
